# Assay results from ChEMBL document CHEMBL4619763 (J Nat Prod, 2020).
# The source made the active and inactive calls. The calls are words filed in the database; no cut-off is given here.
# Tests used:
# [1] = tested on: Rattus norvegicus; assay: Diuretic activity in normotensive Wistar rat assessed as increase in urine volume excretion at 1 mg/kg, ip a after 6 hr; assay type: functional, organism-based
# [2] = tested on: Rattus norvegicus; assay: Diuretic activity in normotensive Wistar rat assessed as urinary potassium excretion at 1 mg/kg, po administered via gavage after 8 hrs (reference value: 22.39 to 24.21 mmol/L); assay type: ADME, organism-based; settings: in vivo
# [3] = tested on: Rattus norvegicus; assay: Diuretic activity in normotensive Wistar rat assessed as urinary potassium excretion at 0.1 mg/kg, po administered via gavage after 8 hrs in presence of hydrochlorothiazide (reference value: 22.39 to 24.21 mmol/L); assay type: ADME, organism-based; settings: in vivo
# [4] = tested on: Rattus norvegicus; assay: Diuretic activity in normotensive Wistar rat assessed as urinary chloride excretion at 0.1 mg/kg, po administered via gavage after 8 hrs in presence of indomethacin (reference value: 135.10 to 143.70 mmol/L); assay type: functional
# [5] = tested on: Rattus norvegicus; assay: Diuretic activity in normotensive Wistar rat assessed as urine pH at 0.1 mg/kg, po administered via gavage after 8 hrs in presence of indomethacin (reference value: 6.14 to 6.21); assay type: functional
# [6] = tested on: Rattus norvegicus; assay: Diuretic activity in normotensive Wistar rat assessed as urinary chloride excretion at 0.1 mg/kg, po administered via gavage after 8 hrs in presence of hydrochlorothiazide (reference value: 135.10 to 143.70 mmol/L); assay type: functional
# [7] = tested on: Rattus norvegicus; assay: Diuretic activity in normotensive Wistar rat assessed as urinary sodium excretion at 0.01 mg/kg, po administered via gavage after 8 hrs (reference value: 61.82 to 80.81 mmol/L); assay type: functional
# [8] = tested on: Rattus norvegicus; assay: Cardioprotective activity in spontaneous hypertensive Wistar rat assessed as effect on heart weight at 0.1 mg/kg, po administered for 7 days; assay type: functional, organism-based
# [9] = tested on: Rattus norvegicus; assay: Diuretic activity in normotensive Wistar rat assessed as urinary sodium excretion at 1 mg/kg, po administered via gavage after 8 hrs (reference value: 61.82 to 80.81 mmol/L); assay type: functional
# [10] = tested on: Rattus norvegicus; assay: Diuretic activity in normotensive Wistar rat assessed as urinary chloride excretion at 0.1 mg/kg, po administered via gavage after 8 hrs in presence of atropine (reference value: 135.10 to 143.70 mmol/L); assay type: functional
# [11] = tested on: Rattus norvegicus; assay: Anti-urolithic activity in normotensive Wistar rats assessed as reduction in CaOx crystal formation in cumulative urine at 0.1 mg/kg, po administered via gavage in presence of sodium oxalate by Neubauer counting chamber method relative to control; assay type: functional; design: scale not given: the % may be the effect or the level left
# [12] = tested on: Rattus norvegicus; assay: Diuretic activity in normotensive Wistar rat assessed as increase in urinary sodium excretion at 0.1 mg/kg, po administered via gavage for 7 days; assay type: functional, organism-based
# [13] = tested on: Rattus norvegicus; assay: Diuretic activity in spontaneous hypertensive Wistar rat assessed as increase in urine volume at 0.1 mg/kg, po administered via gavage for 7 days; assay type: functional, organism-based
# [14] = Toxicity in normotensive Wistar rat assessed as changes in plasma ALT level at 0.1 mg/kg, po administered for 7 days; assay type: organism-based; settings: in vivo, 168 h
# [15] = tested on: Rattus norvegicus; assay: Diuretic activity in normotensive Wistar rat assessed as urinary sodium excretion at 0.1 mg/kg, po administered via gavage after 8 hrs in presence of hydrochlorothiazide (reference value: 61.82 to 80.81 mmol/L); assay type: functional
# [16] = tested on: Rattus norvegicus; assay: Renal protective activity in spontaneous hypertensive Wistar rat assessed as reduction in hypertension-induced Bowman's capsule thickening at 0.1 mg/kg, po administered via gavage for 7 days by hematoxylin and eosin staining based microscopic analysis; assay type: functional, organism-based
# [17] = tested on: Rattus norvegicus; assay: Diuretic activity in normotensive Wistar rat assessed as urinary chloride excretion at 0.1 mg/kg, ip […] after 8 hrs (reference value: 103.30 +/- 10.25 mmol/L); assay type: functional
# [18] = tested on: Rattus norvegicus; assay: Diuretic activity in normotensive Wistar rat assessed as urine conductivity at 0.1 mg/kg, po administered via gavage after 8 hrs in presence of L-NAME (reference value: 19.54 +/- 0.98 mS/cm); assay type: functional
# [19] = Toxicity in normotensive Wistar rat assessed as changes in urea level in urine at 0.1 mg/kg, po administered for 7 days; assay type: organism-based; settings: in vivo, 168 h
# [20] = tested on: Rattus norvegicus; assay: Diuretic activity in normotensive Wistar rat assessed as urine conductivity at 0.1 mg/kg, po administered via gavage after 8 hrs in presence of indomethacin (reference value: 19.54 +/- 0.98 mS/cm); assay type: functional
# [21] = tested on: Rattus norvegicus; assay: Diuretic activity in normotensive Wistar rat assessed as urine conductivity at 0.1 mg/kg, po administered via gavage after 8 hrs in presence of furosemide (reference value: 19.54 +/- 0.98 mS/cm); assay type: functional
# [22] = tested on: Rattus norvegicus; assay: In vivo antioxidant activity in Wistar rat model of hypertension-induced oxidative stress assessed as reduction in nitrite level in renal tissue at 0.1 mg/kg, po administered via gavage for 7 days by Griess reagent based assay; assay type: functional, organism-based
# [23] = tested on: Rattus norvegicus; assay: Diuretic activity in normotensive Wistar rat assessed as increase in urine volume at 0.1 mg/kg, po administered via gavage for 7 days; assay type: functional, organism-based
# [24] = Toxicity in spontaneous hypertensive Wistar rat assessed as changes in plasma chloride level at 0.1 mg/kg, po administered for 7 days; assay type: organism-based; settings: in vivo, 168 h
# [25] = tested on: Rattus norvegicus; assay: Diuretic activity in normotensive Wistar rat assessed as urinary calcium excretion at 0.1 mg/kg, po administered via gavage after 8 hrs in presence of furosemide (reference value: 5.93 to 6.87 mg/dl); assay type: functional
# [26] = tested on: Rattus norvegicus; assay: Diuretic activity in normotensive Wistar rat assessed as urine conductivity at 0.1 mg/kg, ip after 8 hrs (reference value: 24.87 +/- 0.54 mS/cm); assay type: functional
# [27] = tested on: Rattus norvegicus; assay: Diuretic activity in normotensive Wistar rat assessed as urine pH at 0.1 mg/kg, po administered via gavage after 8 hrs in presence of L-NAME (reference value: 6.14 to 6.21); assay type: functional
# [28] = tested on: Rattus norvegicus; assay: Diuretic activity in normotensive Wistar rat assessed as urine pH at 0.1 mg/kg, ip after 8 hrs (reference value: 6.05 +/- 0.22); assay type: functional
# [29] = tested on: Rattus norvegicus; assay: Diuretic activity in normotensive Wistar rat assessed as urine conductivity at 0.1 mg/kg, po administered via gavage after 8 hrs in presence of hydrochlorothiazide (reference value: 19.54 +/- 0.98 mS/cm); assay type: functional
# [30] = Toxicity in normotensive Wistar rat assessed as changes in plasma calcium level at 0.1 mg/kg, po administered for 7 days; assay type: organism-based; settings: in vivo, 168 h
# [31] = tested on: Rattus norvegicus; assay: Diuretic activity in normotensive Wistar rat assessed as urinary potassium excretion at 0.1 mg/kg, ip […] after 8 hrs (reference value: 22.33 +/- 2.81 mmol/L); assay type: ADME, organism-based; settings: in vivo
# [32] = Antioxidant activity assessed as DPPH radical scavenging activity at 100 to 1000 ug/ml after 5 mins; assay type: functional
# [33] = tested on: Rattus norvegicus; assay: Diuretic activity in normotensive Wistar rat assessed as urinary chloride excretion at 1 mg/kg, ip […] after 8 hrs (reference value: 103.30 +/- 10.25 mmol/L); assay type: functional
# [34] = Toxicity in normotensive Wistar rat assessed as changes in plasma chloride level at 0.1 mg/kg, po administered for 7 days; assay type: organism-based; settings: in vivo, 168 h
# [35] = tested on: Rattus norvegicus; assay: Diuretic activity in normotensive Wistar rat assessed as urinary chloride excretion at 0.1 mg/kg, po administered via gavage after 8 hrs in presence of furosemide (reference value: 135.10 to 143.70 mmol/L); assay type: functional
smiles,measurement,setting,value
C[C@@H]1O[C@@H](Oc2c(-c3ccc(O)cc3)oc3cc(O)cc(O)c3c2=O)[C@H](O)[C@H](O)[C@H]1O [AFZELIN],Activity,[1],Active
same,Activity,[2],22.5 mmol/L
same,Activity,[3],33.28 mmol/L
same,Activity,[4],284.5 mmol/L
same,pH,[5],5.94
same,Activity,[6],333.4 mmol/L
same,Activity,[7],61.35 mmol/L
same,Activity,[8],inactive
same,Activity,[9],74.67 mmol/L
same,Activity,[10],231.8 mmol/L
same,Activity,[11],41.3%
same,Activity,[12],Active
same,Activity,[13],Active
same,Activity,[14],Non-Toxic
same,Activity,[15],113.3 mmol/L
same,Activity,[16],Active
same,Activity,[17],78.12 mmol/L
same,Activity,[18],15.97 mS/cm
same,Activity,[19],Non-Toxic
same,Activity,[20],19.34 mS/cm
same,Activity,[21],20.62 mS/cm
same,Activity,[22],Active
same,Activity,[23],Active
same,Activity,[24],Non-Toxic
same,Activity,[25],5.36 mg/dL
same,Activity,[26],24.35 mS/cm
same,pH,[27],6.43
same,pH,[28],5.89
same,Activity,[29],19.83 mS/cm
same,Activity,[30],Non-Toxic
same,Activity,[31],12.79 mmol/L
same,Activity,[32],Active
same,Activity,[33],107.4 mmol/L
same,Activity,[34],Non-Toxic
same,Activity,[35],154.7 mmol/L
